Experimental data taken from paper PMC6843445, “Pharmacokinetic Properties of Fluorescently Labelled Hydroxypropyl-Beta-Cyclodextrin” (Biomolecules, 2019).

System: HUVECs
Assay: FITC-HPBCD uptake, flow cytometry
Type: cell-based, Human
Method: Human umbilical vein endothelial cells (HUVECs) were removed from umbilical veins by exposure to dispase (0.2% in Hank’s balanced salt solution) and cultured in gelatin-coated flasks in medium 199 containing 15% foetal bovine serum (FBS), antibiotics, L-glutamine, sodium pyruvate and endothelial cell growth supplement from bovine pituitary. For the fluorescent microscopic experiments, cells were seeded onto gelatin-coated round glass coverslips and maintained in medium until the treatments.
In the flow cytometry experiments, HUVECs were treated with 50 µM FITC-HPBCD for 30 min at 37 °C and washed five times with ice-cold HBSS. Half of the samples were incubated for a further 60 min in HBSS at 37 °C. After the above-mentioned incubations every sample was trypsinized, the cell suspensions were washed twice with ice-cold HBSS and analyzed with a FACScan flow cytometer (BD Biosciences, San Jose, CA, USA). Propidium-iodide (PI) (2 µg/mL) was added to the samples to recognize dead cells and exclude them from the evaluation. FITC-HPBCD was excited by an argon laser at 488 nm and the emission was detected via 530/30 nm band pass filter. Data were analyzed by BDIS Cellquest software (Becton-Dickinson). The cellular fluorescence intensities of the FITC-HPBCD treated cells were compared to the fluorescence of the untreated control cells and expressed as relative cellular fluorescence intensities.

6-deoxy-6-[(5/6)-fluoresceinylthioureido]-(2-hydroxypropyl)-β-cyclodextrin [FITC-HPBCD]
cellular fluorescence after further incubation in HBSS (50 µM 30 min, then 60 min in HBSS): significantly decreased
cellular fluorescence vs untreated control (50 µM, 30 min incubation): significantly increased
